We go through eleven compounds from patent US20220235049A1, “SUBSTITUTED PYRROLO [2, 3-b] PYRIDINE AND PYRAZOLO [3,4-b] PYRIDINE DERIVATIVES AS PROTEIN KINASE INHIBITORS” (Fochon Pharmaceuticals, Ltd., priority 2019, published 2022).

Molecules are shown by their SMILES.

For this assay, the system named is DOHH2 cells. In words: Cell proliferation assay in DOHH2 cells (MTS). It counts as cell-based. As for the experimental part:
To investigate whether a compound is able to inhibit the activity of BTK in cells, a mechanism-based assay using DOHH2 (DSMZ catalog #: ACC47) cell was developed. In this assay, inhibition of BTK was detected by the inhibition of DOHH2 cells proliferation. Cells were collected and plated onto 96-well plates at the optimized cell density (5000 cells/well). Plates were incubated at 37° C., with 5% CO2 for 4 h. Compounds were serially diluted and added to the plates with the final concentrations as 10000, 3333.3, 1111.1, 370.4, 123.5, 41.2, 13.7, 4.6 and 1.5 nM. Plates were incubated at 37° C., with 5% CO2 for 120 h. An aliquot of 20 μL MTS/100 μL medium mixture solution were added to each well and the plates were incubated for exactly 2 h. The reaction was stopped by adding 25 μL 10% SDS to each well. The absorbance was measured by a microplate reader at 490 nm and 650 nm (reference wavelength). IC50 was calculated using GraphPad Prism 5.0.
Select compounds prepared as described above were assayed according to the biological procedures described herein.

One may read the IC50 as the concentration that inhibits the measured activity by half. High values mean weaker potency in that assay, low ones greater potency in that assay. Where the note is “Homo sapiens, DOHH-2, 120 h”, `COc1cnc2[nH]cc(C(=O)c3c(F)cc(Oc4c(F)cccc4F)cc3F)c2c1N[C@@H]1CC[C@@H](CO)OC1` [Example 193, (4-(2,6-difluorophenoxy)-2,6-difluorophenyl)(4-(((3R,6S)-6-(hydroxymethyl)tetrahydro-2H-pyran-3-yl)amino)-5-methoxy-1H-pyrrolo[2,3-b]pyridin-3-yl)methanone] showed an IC50 of 12 nM. That is a double-digit nanomolar value.
The same measure, in the same setting: as for `O=C(c1ccc(Oc2ccccc2)c(Cl)c1Cl)c1c[nH]c2nccc(N[C@@H]3CC[C@@H](CO)OC3)c12` [Example 36, (2,3-dichloro-4-phenoxyphenyl)(4-(((3R,6S)-6-(hydroxymethyl)tetrahydro-2H-pyran-3-yl)amino)-1H-pyrrolo[2,3-b]pyridin-3-yl)methanone], the figure is 69 nM.
Same read-out and setting: as for `COC(=O)NC[C@@H]1CC[C@@H](Nc2c(OC)cnc3[nH]cc(C(=O)c4ccc(Oc5ccccc5F)cc4F)c23)CO1` [Example 163, methyl (((2S,5R)-5-((3-(2-fluoro-4-(2-fluorophenoxy)benzoyl)-5-methoxy-1H-pyrrolo[2,3-b]pyridin-4-yl)amino)tetrahydro-2H-pyran-2-yl)methyl)carbamate], the figure is 45 nM; as for `Cc1cc(Oc2cccc(F)c2)ccc1C(=O)c1c[nH]c2nccc(N[C@@H]3CC[C@@H](CO)OC3)c12` [Example 47, (4-(3-fluorophenoxy)-2-methylphenyl)(4-(((3R,6S)-6-(hydroxymethyl)tetrahydro-2H-pyran-3-yl)amino)-1H-pyrrolo[2,3-b]pyridin-3-yl)methanone], 46 nM; as for `N#Cc1cnc2[nH]cc(C(=O)c3c(F)cc(Oc4ccccc4)cc3F)c2c1N[C@@H]1CC[C@@H](CO)OC1` [Example 45, 3-(2,6-difluoro-4-phenoxybenzoyl)-4-(((3R,6S)-6-(hydroxymethyl)tetrahydro-2H-pyran-3-yl)amino)-1H-pyrrolo[2,3-b]pyridine-5-carbonitrile], 57 nM.
Still for that read-out and setting: as for `COc1cnc2[nH]cc(C(=O)c3ccc(Oc4ccccc4F)cc3C)c2c1N[C@@H]1CC[C@@H](CO)OC1` [Example 78, (4-(2-fluorophenoxy)-2-methylphenyl)(4-(((3R,6S)-6-(hydroxymethyl)tetrahydro-2H-pyran-3-yl)amino)-5-methoxy-1H-pyrrolo[2,3-b]pyridin-3-yl)methanone], the figure is 1 nM.
Turning to `N#Cc1cnc2[nH]cc(C(=O)c3ccc(Oc4ccccc4)cc3Cl)c2c1N[C@@H]1CC[C@@H](CO)OC1` [Example 7, 3-(2-chloro-4-phenoxybenzoyl)-4-(((3R,6S)-6-(hydroxymethyl)tetrahydro-2H-pyran-3-yl)amino)-1H-pyrrolo[2,3-b]pyridine-5-carbonitrile], the IC50 (Homo sapiens, DOHH-2, 120 h) stood at 83 nM.
Still for that read-out and setting: as for `N#Cc1cnc2[nH]cc(C(=O)c3ccc(Oc4ccccc4)cc3Cl)c2c1N[C@@]12COC(CO)[C@@H]1C2` (single isomer, unassigned) [Example 17], the figure is 43 nM; as for `O=C(c1ccc(Oc2ccccc2)cc1)c1c[nH]c2nccc(N[C@@H]3CC[C@@H](CO)OC3)c12` [Example 28, (4-(((3R,6S)-6-(hydroxymethyl)tetrahydro-2H-pyran-3-yl)amino)-1H-pyrrolo[2,3-b]pyridin-3-yl)(4-phenoxyphenyl)methanone], 32 nM.
Under “120 h”, `CCOc1cnc2[nH]cc(C(=O)c3ccc(Oc4ccccc4)cc3F)c2c1N[C@@]12CO[C@H](CO)C1C2` (single isomer, unassigned) [Example 181] displayed an IC50 of 1 nM.
The compound `N#Cc1cnc2[nH]cc(C(=O)c3ccc(Oc4ccccc4F)cc3F)c2c1N[C@@H]1CC[C@@H](CO)OC1` [Example 90, 3-(2-fluoro-4-(2-fluorophenoxy)benzoyl)-4-(((3R,6S)-6-(hydroxymethyl)tetrahydro-2H-pyran-3-yl)amino)-1H-pyrrolo[2,3-b]pyridine-5-carbonitrile] showed an IC50 (Homo sapiens, DOHH-2, 120 h) of 50 nM.
